The text below walks through data of ChEMBL document CHEMBL1125030, “Boc-Trp-Orn(Z)-Asp-NH2 and derivatives: a new family of CCK antagonists” (J Med Chem, 1990).

Structures are written as SMILES. The source made the active and inactive calls. No cut-off for these calls is given here. Where a SMILES comes first, the peptide text is derived from it. [ ]: non-standard residue; d: D form. The star is where a group is joined. Phe(4-SO3H) = N[C@@H](Cc1ccc(S(=O)(=O)O)cc1)C(=O)O; sY = N[C@@H](Cc1ccc(OS(=O)(=O)O)cc1)C(=O)O; Nle = CCCC[C@H](N)C(=O)O; Orn = NCCC[C@H](N)C(=O)O; Cbz = O=C(OCc1ccccc1)*; Boc = CC(C)(C)OC(=O)*

By Kb is commonly meant the equilibrium dissociation constant of an antagonist, usually derived from a functional assay. By pA2 is commonly meant a measure of antagonist potency on a negative log scale. Higher therefore signals a more potent antagonist.

The species entered for test [1] is Cavia porcellus. The experiment in a line: Antagonist activity expressed as binding constant, evaluated from the potency to stimulate Amylase release from guinea pig pancreatic acini;Not significant.
Test [2] is described as follows: Antagonist activity expressed as pA2, evaluated from the potency to stimulate amylase release from guinea pig pancreatic acini. The format is functional, Cavia porcellus.
Test [3] addresses T1, Cholecystokinin receptor type A (Cavia porcellus, UniProt Q63931).
T1 sequence (Q63931 whole entry): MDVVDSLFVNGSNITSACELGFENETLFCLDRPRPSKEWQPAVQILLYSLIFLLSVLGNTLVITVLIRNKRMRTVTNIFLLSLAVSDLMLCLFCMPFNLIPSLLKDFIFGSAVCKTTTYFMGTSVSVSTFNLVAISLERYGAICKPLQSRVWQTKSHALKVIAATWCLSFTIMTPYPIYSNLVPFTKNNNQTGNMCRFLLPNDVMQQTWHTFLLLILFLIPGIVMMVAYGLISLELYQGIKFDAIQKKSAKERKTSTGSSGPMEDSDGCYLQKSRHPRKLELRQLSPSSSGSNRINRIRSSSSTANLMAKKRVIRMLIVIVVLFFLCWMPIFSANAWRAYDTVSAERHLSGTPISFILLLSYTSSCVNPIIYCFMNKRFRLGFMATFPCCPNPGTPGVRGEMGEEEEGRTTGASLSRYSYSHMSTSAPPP
Put plainly: Apparent affinity to inhibit binding of [3H]pCCK-8 to Cholecystokinin type A receptor of guinea pig pancreatic membranes.

A short description of test [4]: Agonist activity expressed as effective concentration that causes 50% stimulation of amylase release from guinea pig pancreatic acini.; ND means no significant activity at 10e-4 M.
The nature of test [5]: (§1) Antagonist activity expressed as binding constant, evaluated from the potency to stimulate Amylase release from guinea pig pancreatic acini. More on the design: species or system Cavia porcellus.
Test [6] is filed under the species Cavia porcellus. The description is as §1.
A short description of test [7]: Agonist activity expressed as effective concentration that causes 50% stimulation of amylase release from guinea pig pancreatic acini;Not significant. The format is functional, Cavia porcellus.
Test [8] is described as follows: Antagonist activity expressed as binding constant, evaluated from the potency to stimulate Amylase release from guinea pig pancreatic acini;Not significant at 10e-4 M. To be noted: Cavia porcellus.
Test [9] is described as follows: Agonist activity expressed as effective concentration that causes 50% stimulation of amylase release from guinea pig pancreatic acini.; ND means no significant activity at 10e-4 M. The format is functional, Cavia porcellus.
Test [10] is described as follows: Antagonist activity expressed as pA2, evaluated from the potency to stimulate Amylase release from guinea pig pancreatic acini. The format is functional, Cavia porcellus.
A short description of test [11]: Agonist activity expressed as effective concentration that causes 50% stimulation of Amylase release from guinea pig pancreatic acini.; ND means no significant activity at 10e-4 M. The format is functional, Cavia porcellus.
The nature of test [12]: Agonist activity expressed as effective concentration that causes 50% stimulation of amylase release from guinea pig pancreatic acini. The format is functional, Cavia porcellus.

In turn, `CC(C)(C)OC(=O)NCCC[C@H](NC(=O)[C@H](Cc1c[nH]c2ccccc12)NC(=O)OC(C)(C)C)C(=O)N[C@@H](CC(=O)O)C(N)=O` (Boc-Trp-[Orn](Boc)-Asp-NH2) registered a Kb in the test filed under Cavia porcellus [1] of 0.23 µM. In test [2], this molecule showed a pA2 of 4.62. Moreover, in [3], the Ki stood at 29 µM. Further, the EC50 entry in [4] is “Not Active”.
In the case of `CC(C)(C)OC(=O)N[C@@H](Cc1c[nH]c2ccccc12)C(=O)N[C@@H](CCCNC(=O)OCc1ccccc1)C(=O)N[C@@H](CC(=O)O)C(N)=O` (Boc-Trp-[Orn](Cbz)-Asp-NH2), the Kb in the test filed under Cavia porcellus [1] was found to be 0.23 µM. In test [2], the pA2 stood at 6.63. Moreover, the Ki in test [3] amounted to 0.2 µM. Besides, the EC50 result in test [4] is “Not Active”.
With `CC(C)(C)OC(=O)N[C@@H](Cc1c[nH]c2ccccc12)C(=O)N[C@@H](CCCN)C(=O)N[C@@H](CC(=O)O)C(N)=O` (Boc-Trp-[Orn]-Asp-NH2), the Ki in test [3] is 1000 µM.
`CC(C)(C)OC(=O)NCCC[C@H](NC(=O)[C@H](Cc1c[nH]c2ccccc12)NC(=O)OC(C)(C)C)C(=O)N[C@@H](CC(=O)O)C(=O)N[C@@H](Cc1ccccc1)C(N)=O` (Boc-W[Orn](Boc)DF-NH2) yielded an EC50 in [5] of 13.6 µM. In the test filed under Cavia porcellus [1], the Kb result was “inactive”. Further, in test [2], the pA2 was determined as 4.58. The Ki in test [3] was found to be 5.2 µM.
For `CC(C)(C)OC(=O)N[C@@H](Cc1c[nH]c2ccccc12)C(=O)N[C@@H](CCCNC(=O)OCc1ccccc1)C(=O)N[C@@H](CC(=O)O)C(=O)N[C@@H](Cc1ccccc1)C(N)=O` (Boc-W[Orn](Cbz)DF-NH2), the Kb in the test listed under Cavia porcellus [6] is 0.57 µM. The molecule further registered a pA2 in test [2] of 6.25. For the same molecule, in [3], the Ki came to 0.34 µM. Also, in test [4], the EC50 entry is reported as “Not Active”.
Regarding `CC(C)(C)OC(=O)N[C@@H](Cc1c[nH]c2ccccc12)C(=O)N[C@@H](CCCN)C(=O)N[C@@H](CC(=O)O)C(=O)N[C@@H](Cc1ccccc1)C(N)=O` (Boc-W[Orn]DF-NH2), the EC50 in test [7] was found to be 13.8 µM. The Ki in test [3] was 14 µM. In test [8], the Kb result was “inactive”.
Take `CCCC[C@H](NC(=O)[C@H](Cc1ccc(S(=O)(=O)O)cc1)NC(=O)OC(C)(C)C)C(=O)NCC(=O)N[C@@H](Cc1c[nH]c2ccccc12)C(=O)N[C@@H](CCCNC(=O)OC(C)(C)C)C(=O)N[C@@H](CC(=O)O)C(=O)N[C@@H](Cc1ccccc1)C(N)=O` (Boc-[Phe(4-SO3H)][Nle]GW[Orn](Boc)DF-NH2): in test [9], the EC50 entry is “Not Active”. This molecule registered an antagonist dissociation constant (Kb) in the test listed under Cavia porcellus [6] of 1.1 µM. Further, the pA2 in [2] was 5.94. In test [3], the Ki was 0.66 µM.
As for `CCCC[C@H](NC(=O)[C@H](Cc1ccc(S(=O)(=O)O)cc1)NC(=O)OC(C)(C)C)C(=O)NCC(=O)N[C@@H](Cc1c[nH]c2ccccc12)C(=O)N[C@@H](CCCNC(=O)OCc1ccccc1)C(=O)N[C@@H](CC(=O)O)C(N)=O` (Boc-[Phe(4-SO3H)][Nle]GW[Orn](Cbz)D-NH2), the Kb in the test listed under Cavia porcellus [6] is 0.22 µM. The EC50 entry in test [4] was “Not Active”.
`CCCC[C@H](NC(=O)[C@H](Cc1ccc(S(=O)(=O)O)cc1)NC(=O)OC(C)(C)C)C(=O)NCC(=O)N[C@@H](Cc1c[nH]c2ccccc12)C(=O)N[C@@H](CCCNC(=O)OCc1ccccc1)C(=O)N[C@@H](CC(=O)O)C(=O)N[C@@H](Cc1ccccc1)C(N)=O` (Boc-[Phe(4-SO3H)][Nle]GW[Orn](Cbz)DF-NH2) displayed a Kb in the test filed under Cavia porcellus [6] of 0.49 µM.
With `CCCC[C@H](NC(=O)[C@H](Cc1ccc(OS(=O)(=O)O)cc1)NC(=O)OC(C)(C)C)C(=O)NCC(=O)N[C@@H](Cc1c[nH]c2ccccc12)C(=O)N[C@@H](CCCNC(=O)OCc1ccccc1)C(=O)N[C@@H](CC(=O)O)C(N)=O` (Boc-[sY][Nle]GW[Orn](Cbz)D-NH2), the pA2 in [2] is reported as 6.64. Moreover, the Ki in test [3] turned out to be 0.23 µM.
For `CCCC[C@H](NC(=O)[C@H](Cc1ccc(OS(=O)(=O)O)cc1)NC(=O)OC(C)(C)C)C(=O)NCC(=O)N[C@@H](Cc1c[nH]c2ccccc12)C(=O)N[C@@H](CCCNC(=O)OCc1ccccc1)C(=O)N[C@@H](CC(=O)O)C(=O)N[C@@H](Cc1ccccc1)C(N)=O` (stereo in doubt; 1), the pA2 in [10] is recorded as 6.32. For the same molecule, the Ki in [3] was found to be 0.31 µM. For the same molecule, in [11], the EC50 entry is recorded as “Not Active”.
Regarding `CCCC[C@H](NC(=O)[C@H](Cc1ccc(OS(=O)(=O)O)cc1)NC(=O)OC(C)(C)C)C(=O)NCC(=O)N[C@@H](Cc1c[nH]c2ccccc12)C(=O)N[C@@H](CCCNC(=O)OCc1ccccc1)C(=O)N[C@@H](CC(=O)O)C(=O)N[C@@H](Cc1ccccc1)C(N)=O` (stereo in doubt; 2), the EC50 in [12] came to 0.022 µM. Also, the Ki in [3] is 0.34 µM.
